Values of other authors as cited in article PMC12181400, “Leveraging viral genome sequences and machine learning models for identification of potentially selective antiviral agents” (Communications Chemistry, 2025).
Where a name gives a salt, the structure may show the parent alone. Read-outs that look alike come from different tables or passages of the source.

Legend:
Settings in all cases: cited from earlier work
[1] = system: cell viability (tox21-are-bla-p1)
[2] = system: cell viability (tox21-car-antagonist-p1)
[3] = system: cell viability (tox21-ap1-agonist-p1)
[4] = system: cell viability (tox21-ar-mda-kb2-luc-agonist-p3)
[5] = system: cell viability (tox21-ar-mda-kb2-luc-antagonist-p2)
[6] = system: cell viability (tox21-car-agonist-p1)
[7] = curve rank −9 to 9, 0 = inactive, ref NCATS Tox21 public data browser

Row | SMILES | tox21-are-bla-p1-viability (curve rank) [1] | tox21-car-antagonist-p1-viability (curve rank) [2] | tox21-ap1-agonist-p1-viability (curve rank) [3] | tox21-ar-mda-kb2-luc-agonist-p3-viability (curve rank) [4] | tox21-ar-mda-kb2-luc-antagonist-p2-viability (curve rank) [5] | tox21-car-agonist-p1-viability (curve rank) [6] | tox21-are-bla-p1-viability (curve rank) [1, 7] | tox21-car-antagonist-p1-viability (curve rank) [2, 7] | tox21-ap1-agonist-p1-viability (curve rank) [3, 7] | tox21-ar-mda-kb2-luc-agonist-p3-viability (curve rank) [4, 7] | tox21-ar-mda-kb2-luc-antagonist-p2-viability (curve rank) [5, 7] | tox21-car-agonist-p1-viability (curve rank) [6, 7]
1 | CCN(CC)CCNC(=O)c1cc(Br)c(N)cc1OC [Bromopride] | 0 | 0 | 0 | 0 | 0 | 0 |  |  |  |  |  | 
2 | COc1cc(C(=O)NCCCCCC(=O)O)cc(OC)c1OC [Capobenic acid] |  |  |  |  |  |  | 0 | 0 | 0 | 0 | 0 | 0
3 | NC(=O)N1c2ccccc2C=Cc2ccccc21 [Carbamazepine] | 0 | 0 | 0 | 0 | 0 | 0 |  |  |  |  |  | 
4 | CC(C)(C)NCC(O)COc1cccc2c1CCC(=O)N2 (stereo not drawn) [Carteolol hydrochloride] | 0 | 0 | 0 | 0 | 0 | 0 |  |  |  |  |  | 
5 | CO[C@@]1(NC(=O)CSCC#N)C(=O)N2C(C(=O)O)=C(CSc3nnnn3C)CS[C@@H]21 [Cefmetazole sodium] | 0 | 0 | -0.67 | 0 | 0 | 0 |  |  |  |  |  | 
6 | CN(C)CCn1nnnc1SCC1=C(C(=O)O)N2C(=O)[C@@H](NC(=O)Cc3csc(N)n3)[C@H]2SC1 [Cefotiam hydrochloride] | 0 | 0 | 0 | 0 | 0 | 0 |  |  |  |  |  | 
7 | CN1C(=O)CCS(=O)(=O)C1c1ccc(Cl)cc1 (stereo not drawn) [Chlormezanone] |  |  |  |  |  |  | 0 | 0 | 0 | 0 | 0 | 0
8 | O=C(O)c1cc(=O)c2ccccc2o1 [Chromocarb] |  |  |  |  |  |  | 0 | 0 | 0 | 0 | 0 | 0
9 | CC(C)(Oc1ccc(Cl)cc1)C(=O)O [Clofibric acid] | 0 | 0 | 0 | 0 | 0 | 0 |  |  |  |  |  | 
10 | Cc1ncsc1CCCl [Clomethiazole] |  |  |  |  |  |  | 0 | 0 | 0 | 0 | 0 | 0
11 | Clc1cccc(Cl)c1N=C1NCCN1 [Clonidine] | 0 | 0 | 0 | 0 | 0 | 0 |  |  |  |  |  | 
12 | COC(=O)[C@H](c1ccccc1Cl)N1CCc2sccc2C1 [Clopidogrel bisulfate] | 0 | 0 | 0 | 0 | 0 | 0 |  |  |  |  |  | 
13 | Cc1nc(C)c(Cl)c(O)c1Cl [Clopidol] |  |  |  |  |  |  | 0 | 0 | -0.67 | 0 | 0 | 0
14 | CN1C(=O)CC[C@H]1c1cccnc1 [Cotinine] | 0 | 0 | 0 | 0 | 0 | 0 |  |  |  |  |  | 
15 | CN(C)CCOC(=O)C(c1ccccc1)C1(O)CCCC1 (stereo not drawn) [Cyclopentolate hydrochloride] |  |  |  |  |  |  | 0 | 0 | 0 | 0 | 0 | 0
16 | NS(=O)(=O)c1cc2c(cc1Cl)NC(C1CC3C=CC1C3)NS2(=O)=O (stereo not drawn) [Cyclothiazide] |  |  |  |  |  |  | 0 | 0 | 0 | 0 | 0 | 0
17 | CCOP(=S)(OCC)Oc1cc(C)nc(C(C)C)n1 [Diazinon] |  |  |  |  |  |  | 0 | 0 | 0 | 0 | 0 | 0
18 | COc1ccc(-c2cc(=O)c3c(O)cc(O[C@@H]4O[C@H](CO[C@@H]5O[C@@H](C)[C@H](O)[C@@H](O)[C@H]5O)[C@@H](O)[C@H](O)[C@H]4O)cc3o2)cc1O [Diosmin] | 0 | 0 | 0 | 0 | 0 | 0 |  |  |  |  |  | 
19 | CC(C)N(CCC(C(N)=O)(c1ccccc1)c1ccccn1)C(C)C (stereo not drawn) [Disopyramide] | 0 | 0 | 0 | 0 | 0 | 0 |  |  |  |  |  | 
20 | OCC(O)CN1CCN(c2ccccc2)CC1 (stereo not drawn) [Dropropizine] |  |  |  |  |  |  | 0 | 0 | 0 | 0 | 0 | 0
21 | CCC1(C2=NCCN2)Cc2ccccc2O1 (stereo not drawn) [Efaroxan] |  |  |  |  |  |  | 0 | 0 | 0 | 0 | 0 | 0
22 | CCOC(=O)[C@H](CCc1ccccc1)N[C@@H](C)C(=O)N1CCC[C@H]1C(=O)O [Enalapril maleate] | 0 | 0 | 0 | 0 | 0 | 0 |  |  |  |  |  | 
23 | CSc1ccc(C(=O)c2[nH]c(=O)[nH]c2C)cc1 [Enoximone] | 0 | 0 | 0 | 0 | 0 | 0 |  |  |  |  |  | 
24 | O=C(Cn1ccnc1[N+](=O)[O-])NCCO [Etandazole] | 0 | 0 | 0 | 0 | 0 | 0 |  |  |  |  |  | 
25 | CCOC(=O)c1cncn1[C@H](C)c1ccccc1 [Etomidate] |  |  |  |  |  |  | 0 | 0 | 0 | 0 | 0 | 0
26 | NC(=O)OCC(COC(N)=O)c1ccccc1 [Felbamate] |  |  |  |  |  |  | 0 | 0 | 0 | 0 | 0 | 0
27 | NC(Cc1ccc(Cl)cc1)C(=O)O (stereo not drawn) [Fenclonine] | 0 | 0 | 0 | 0 | 0 | 0 |  |  |  |  |  | 
28 | O=C1NCC2(CCN(CCc3ccccc3)CC2)O1 [Fenspiride hydrochloride] |  |  |  |  |  |  | 0 | 0 | 0 | 0 | 0 | 0
29 | COP(=S)(OC)Oc1ccc(SC)c(C)c1 [Fenthion] |  |  |  |  |  |  | 0 | 0 | 0 | 0 | 0 | 0
